Patent US9109048B2, “Inhibition of tumor growth” (priority 1998, dated 2015)
Converted amounts (≈) assume the structure as drawn. “And” between values parts separate entries of the source, which are not always exact repeats. Identical values can stand only once. Like-named read-outs stand apart in the source and are kept apart here. Square brackets hold non-standard residues; d marks the D form. Ends that are not written are not given here. Peptide text beside a SMILES is read from it. Orn = NCCC[C@H](N)C(=O)O

Experiments:
Type in all cases: cell-based
[1] = tested on: Staphylococcus aureus ATCC 25923; assay: MIC (minimum inhibitory concentration) test, microdilution
Procedure: (§1) The bacterial strains used were: Escherichia coli ATCC 25922 and Staphylococcus aureus ATCC 25923. All strains were stored at −70° C. The bacteria were grown in 2% Bacto Peptone water (Difco 1807-17-4). All tests were performed with bacteria in mid-logarithmic growth phase. Determination of the minimum inhibitory concentration (MIC) of the peptides for bacterial strains were performed in 1% Bacto Peptone water. A standard microdilution technique with an inoculum of 2×10^6 CFU/ml was used. All assays were performed in triplets. Since the peptides are positively charged and therefore could adhere to the plastic wells, we controlled the actual concentration of the peptides in the solution by HPLC. There was no difference between the concentration of the peptides before or after adding the solution to the plastic wells.

[2] = tested on: MRSA (methicillin resistant S. aureus)
Procedure: as §1
(§2) Table 15 below gives the antibacterial activity and toxicity data for some preferred peptides of the invention. MRSA is methicillin resistant S. aureus and MRSE is methicilin resistant S. epidermidis.

human red blood cells = assay: Hemolytic assay
Procedure: The hemolytic activities of the peptides were determined using fresh human red blood cells. 8 ml blood was taken from a healthy person. 4 ml blood was transferred to a polycarbonate tube containing heparin to a final concentration of 10 U/ml, and the remaining 4 ml blood was transferred to a glass tube containing EDTA with final concentration of 15% EDTA. The erythrocytes were isolated from heparin-treated blood by centrifugation in 1500 rpm for 10 min and washed three times with phosphate-buffered saline (PBS) to remove plasma and buffy coat. The cell pellet was resuspended in PBS to make the final volume of 4 ml. The peptide was diluted to a concentration of 2 mg/ml and 0.1 mg/ml. The peptide was further diluted to the concentrations as stated in Table 1. For each tube PBS was added first, then RBCs and peptide solutions. The hematocrit in the blood treated with EDTA was determined after 30 min with Sysmex K-1000, and the resuspended RBCs were diluted into 10% hematocrit. RBCs in PBS (1%) with and without peptides (Table 18) were incubated in a shaker at 37° for 1 hour and then centrifuged at 4000 rpm for 5 min. The supernatant were carefully transferred to new polycarbonate tubes and the absorbance of the supernatant was measured at 540 nm. Baseline hemolysis was hemoglobin released in the presence of PBS, and 100% hemolysis was hemoglobin released in the presence of 0.1% Triton X-100.

[3] = tested on: Escherichia coli ATCC 25922; assay: MIC (minimum inhibitory concentration) test, microdilution
Procedure: as §1

[4] = tested on: MRSE (methicilin resistant S. epidermidis)
Procedure: as §1, §2

[5] = Table 16, peptides with D-amino acids

Compound	MIC S. aureus ([1]; Table 15)	MIC MRSA ([2]; Table 15)	MIC MRSA ([2]; methicillin resistant)	MIC E. coli ([3]; Table 15)	MIC E. coli ([3]; ATCC 25922)	MIC MRSE ([4]; methicilin resistant)	EC50 (human red blood cells; red cells of human)	EC 50 (toxicity, hemolysis) (human red blood cells; red cells of human)	further results
CSCC[C@H](NC(=O)[C@H](CCCNC(=N)N)NC(=O)[C@H](Cc1ccc2ccccc2c1)NC(=O)[C@H](CCC(N)=O)NC(=O)[C@H](Cc1ccc2ccccc2c1)NC(=O)[C@H](CCCNC(=N)N)NC(=O)[C@H](CCCNC(=N)N)NC(=O)[C@H](CSCNC(C)=O)NC(=O)[C@H](CCCCN)NC(=O)[C@@H](N)Cc1ccccc1)C(=O)N[C@@H](CCCCN)C(=O)N[C@@H](CCCCN)C(=O)N[C@@H](CC(C)C)C(=O)NCC(=O)N[C@@H](C)C(=O)O [LFB Nal6,8]	20.0 µg/mL	5.0 µg/mL	–	10.0 µg/mL	–	–	–	>1000 µg/mL	MIC S. aureus ([1]; Table 9): 20 µg/mL; MIC E. coli ([3]; Table 9): 10 µg/mL
YRAWRWAWRWR-NH2 [LFB 17-27 A3,7 R2,11 W4,10 Y1 NH2]	2.5 µg/mL	–	–	10.0 µg/mL	5.9 µM	1.5 µM	–	–	MIC S. aureus ([1]; ATCC 25923): 1.5 µM; MIC MRSE ([4]; Table 15): 2.5 µg/mL
C[C@@H](NC(=O)[C@H](Cc1c[nH]c2ccccc12)NC(=O)[C@H](CCCNC(=N)N)NC(=O)[C@H](Cc1c[nH]c2ccccc12)NC(=O)[C@@H](C)NC(=O)[C@@H](CCCNC(=N)N)NC(=O)[C@H](N)Cc1ccc(O)cc1)C(=O)N[C@@H](Cc1c[nH]c2ccccc12)C(=O)N[C@@H](CCCNC(=N)N)C(=O)N[C@@H](Cc1c[nH]c2ccccc12)C(=O)N[C@@H](CCCNC(=N)N)C(N)=O [SEQ ID NO: 34, tyr-arg-ala-TRP-ARG-TRP-ala-TRP-ARG-TRP-ARG-CONH2] (H-[dY][dR][dA]WRW[dA]WRWR-NH2; N-terminus assumed)	–	–	–	–	–	–	–	–	MIC S. aureus ([1]; Table 16): 5 µg/mL; MIC E. coli [3, 5]: 7.5 µg/mL; MIC MRSA ([2]; Table 16): 2.5 µg/mL
CSCC[C@H](NC(=O)[C@H](CCCNC(=N)N)NC(=O)[C@H](Cc1c[nH]c2ccccc12)NC(=O)[C@H](C)NC(=O)[C@H](Cc1c[nH]c2ccccc12)NC(=O)[C@H](CCCNC(=N)N)NC(=O)[C@H](CCCNC(=N)N)NC(=O)[C@H](C)NC(=O)[C@H](CCCCN)NC(=O)[C@H](Cc1ccccc1)NC(=O)[C@H](Cc1c[nH]c2ccccc12)NC(=O)[C@H](C)NC(=O)[C@@H]1CCCN1)C(=O)N[C@@H](CCCCN)C(=O)N[C@@H](CCCCN)C(=O)N[C@@H](CC(C)C)C(=O)N[C@@H](C)C(=O)N[C@@H](C)C(=O)O [LFB 14-31 A2,6,10,17]	–	5.0 µg/mL	2.2 µM	20.0 µg/mL	8.8 µM	–	> 440 µM	>1000 µg/mL	MIC E. coli ([3]; Table 8): 20 µg/mL
CSCC[C@H](NC(=O)[C@H](CCCNC(=N)N)NC(=O)[C@H](Cc1c[nH]c2ccccc12)NC(=O)[C@H](CCC(N)=O)NC(=O)[C@H](Cc1c(S(=O)(=O)c2c(C)c(C)c3c(c2C)CCC(C)(C)O3)[nH]c2ccccc12)NC(=O)[C@H](CCCNC(=N)N)NC(=O)[C@H](CCCNC(=N)N)NC(=O)[C@H](CSCNC(C)=O)NC(=O)[C@H](CCCCN)NC(=O)[C@@H](N)Cc1ccccc1)C(=O)N[C@@H](CCCCN)C(=O)N[C@@H](CCCCN)C(=O)N[C@@H](CC(C)C)C(=O)NCC(=O)N[C@@H](C)C(=O)O [LFB PMC6]	2.5 µg/mL	2.5 µg/mL	1.1 µM	10.0 µg/mL	4.3 µM	–	–	>1000 µg/mL	MIC E. coli ([3]; Table 13): 10 µg/mL
CSCC[C@H](NC(=O)[C@H](CCCNC(=N)N)NC(=O)[C@H](Cc1ccc(-c2ccccc2)cc1)NC(=O)[C@H](CCC(N)=O)NC(=O)[C@H](Cc1c(S(=O)(=O)c2c(C)c(C)c3c(c2C)CCC(C)(C)O3)[nH]c2ccccc12)NC(=O)[C@H](CCCNC(=N)N)NC(=O)[C@H](CCCNC(=N)N)NC(=O)[C@H](CSCNC(C)=O)NC(=O)[C@H](CCCCN)NC(=O)[C@@H](N)Cc1ccccc1)C(=O)N[C@@H](CCCCN)C(=O)N[C@@H](CCCCN)C(=O)N[C@@H](CC(C)C)C(=O)NCC(=O)N[C@@H](C)C(=O)O [LFB Bip8 PMC]	2.5 μg/ml and 1.1 μM	2.5 µg/mL	–	15.0 μg/ml and 6.3 μM	–	–	–	–	MIC S. aureus ([1]; Table 9): 5 µg/mL; MIC E. coli ([3]; Table 9): 25 µg/mL

Now from value to compound, other results behind:

MIC S. aureus ([1]; Table 15)	MIC MRSA ([2]; Table 15)	MIC MRSA ([2]; methicillin resistant)	MIC E. coli ([3]; Table 15)	MIC E. coli ([3]; ATCC 25922)	MIC MRSE ([4]; methicilin resistant)	Compound	EC50 (human red blood cells; red cells of human)	EC 50 (toxicity, hemolysis) (human red blood cells; red cells of human)	further results
2.5 µg/mL	2.5 µg/mL	1.2 µM	–	–	–	CSCC[C@H](NC(=O)[C@H](CCCN)NC(=O)[C@H](Cc1c[nH]c2ccccc12)NC(=O)[C@H](C)NC(=O)[C@H](Cc1c[nH]c2ccccc12)NC(=O)[C@H](CCCN)NC(=O)[C@H](Cc1ccccc1)NC(=O)[C@H](C)NC(=O)[C@H](CCCN)NC(=O)[C@H](CCCN)NC(=O)[C@H](Cc1c[nH]c2ccccc12)NC(=O)[C@H](C)NC(=O)[C@@H]1CCCN1)C(=O)N[C@@H](CC(C)C)C(=O)N[C@@H](CCCN)C(=O)N[C@@H](CCCN)C(=O)N[C@@H](C)C(=O)N[C@@H](C)C(=O)O (H-PAW[Orn][Orn]AF[Orn]WAW[Orn]ML[Orn][Orn]AA-OH; N-terminus assumed)	202 µM	–	MIC S. aureus ([1]; ATCC 25923): 1.2 µM; EC 50 (toxicity, hemolysis) (human red blood cells; Table 15): 425 µg/mL (≈ 202 µM)
–	1.0 µg/mL	0.7 µM	5.0 µg/mL	3.7 µM	1.8 µM	RRWYRWWR-NH2 [LFM 17-24 R1,2,8 W3,7Y4NH2]	> 733 µM	>1000 µg/mL	MIC E. coli ([3]; Table 12): 5 µg/mL; MIC MRSE ([4]; Table 15): 2.5 µg/mL
1.0 µg/mL	2.5 µg/mL	–	10.0 µg/mL	–	–	YRWWRWARRW-NH2 [LFM 17-26 A7R2,8,9W3,4, 10Y1NH2]	–	–	MIC E. coli ([3]; Table 12): 10 µg/mL
–	–	–	10.0 µg/mL	8.3 µM	0.8 µM	RWWRYWR-NH2 [LFM 18-24 R1,7 W2,3,6Y5NH2, ARG-TRP-TRP-ARG-TYR-TRP-ARG-CONH2]	> 829 µM	>1000 µg/mL	MIC S. aureus ([1]; ATCC 25923): 0.4 to 0.8 µM; MIC E. coli ([3]; Table 12): 10 µg/mL; MIC E. coli [3, 5]: 10 µg/mL; MIC MRSE ([4]; Table 15): 1.0 µg/mL
–	–	1.1 µM	–	4.5 µM	1.1 µM	H-FKWRRWQWRMKKLWA-OH [LFBW3,14, H2N-Phe-Lys-Trp-Arg-Arg-Trp-Gln-Trp-Arg-Met-Lys-Lys-Leu-Trp-Ala-COOH]	–	>1000 µg/mL	MIC S. aureus ([1]; Table 15, 14): 2.5 µg/mL; MIC E. coli ([3]; Table 14): 10 µg/mL; MIC E. coli ([3]; Table 15, 14): 10.0 µg/mL; MIC MRSA ([2]; Table 15, 14): 2.5 µg/mL; MIC MRSE ([4]; Table 15, 14): 2.5 µg/mL
